# Where a chain is given by its changes, count along the chain named.
# Key:
# human α1aAR SNP V311I [1] = target: T1, human α1aAR SNP V311I (Homo sapiens, UniProt P35348, V311I); assay: Competition binding vs [125I]HEAT, SNP V311I; settings: high expressing clone
# T1 construct: expressed in transfected cells
# T1 sequence (P35348 1-466 V311I): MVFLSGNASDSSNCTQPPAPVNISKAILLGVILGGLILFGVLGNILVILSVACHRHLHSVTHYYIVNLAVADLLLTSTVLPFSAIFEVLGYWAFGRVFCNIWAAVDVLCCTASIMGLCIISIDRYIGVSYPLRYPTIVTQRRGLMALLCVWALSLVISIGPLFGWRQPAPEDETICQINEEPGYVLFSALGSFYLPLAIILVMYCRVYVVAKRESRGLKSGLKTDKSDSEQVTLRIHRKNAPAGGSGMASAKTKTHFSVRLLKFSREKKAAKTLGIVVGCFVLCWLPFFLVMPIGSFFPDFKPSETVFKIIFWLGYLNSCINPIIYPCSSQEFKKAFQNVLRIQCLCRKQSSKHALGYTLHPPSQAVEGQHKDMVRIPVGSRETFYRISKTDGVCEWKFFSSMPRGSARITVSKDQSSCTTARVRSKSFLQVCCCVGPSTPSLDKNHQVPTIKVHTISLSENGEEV
# human α1aAR SNP G247R = target: T2, human α1aAR SNP G247R (Homo sapiens, UniProt P35348, G247R); assay: NE-stimulated inositol phosphate (IP) production, SNP G247R; assay type: cell-based; settings: low-expression stable clones
# T2 construct: expressed in transfected cells
# T2 sequence (P35348 1-466 G247R): T1 sequence (P35348 1-466 V311I) with G247R, I311V
# human α1aAR SNP V311I [2] = target: T1, human α1aAR SNP V311I; assay: NE-stimulated inositol phosphate (IP) production, SNP V311I; assay type: cell-based
# human α1aAR SNP I200S = target: T3, human α1aAR SNP I200S (Homo sapiens, UniProt P35348, I200S); assay: Competition binding vs [125I]HEAT, SNP I200S; settings: high expressing clone
# T3 construct: expressed in transfected cells; host or cells: rat-1 fibroblasts (membranes)
# T3 sequence (P35348 1-466 I200S): T1 sequence (P35348 1-466 V311I) with I200S, I311V
compound,measurement,setting,value
COc1ccccc1N1CCN(CCCNc2c(C)c(=O)n(C)c(=O)n2C)CC1 [5-methylurapidil],higher affinity vs WT,human α1aAR SNP V311I [1],3 fold
CNC[C@H](O)c1cccc(O)c1 [phenylephrine],Ki increase vs WT (decrease in receptor affinity),human α1aAR SNP V311I [1],~3 fold
"NC[C@H](O)c1ccc(O)c(O)c1 [NE, (−)-norepinephrine]",Ki increase vs WT (decrease in receptor affinity),human α1aAR SNP V311I [1],~3 fold
same,maximum IP production (maximum activity) vs WT,human α1aAR SNP G247R,significantly higher maximum activity
same,decrease in potency of NE-stimulated IP formation compared with WT,human α1aAR SNP V311I [2]; high-expression stable clone,2.4 fold
same,EC50 for NE vs WT,human α1aAR SNP V311I [2]; low-expression stable clone,significantly increased EC50
same,EC50 for NE vs WT,human α1aAR SNP V311I [2]; transiently transfected rat-1 fibroblasts,significantly increased EC50
Cc1ccc(N(CC2=NCCN2)c2cccc(O)c2)cc1 [phentolamine],Ki increase vs WT (decreased binding affinity),human α1aAR SNP I200S,~3 fold
